Source: paper PMC6268995, “(E)-5-Styryl-1H-indole and (E)-6-Styrylquinoline Derivatives Serve as Probes for β-Amyloid Plaques” (Molecules, 2012)
Entries after “also recorded” stand apart in the source; their conditions may differ. Where two headings read alike, the source gives them in different places. Blank lines part the entries; values can stand above or below the compound they belong to.

Columns and labels:
Aβ1–40 aggregates = biological target: T1, Aβ1–40 aggregates (Homo sapiens, UniProt P05067); assay: Competition binding assay on Aβ1–40 aggregates using [125I]TZDM as radio-ligand; settings: Aβ1–40 aggregates against [125I]TZDM; triplicate, mean ± SD
T1 construct: β-amyloid(1–40) were purchased from AnaSpec; purchased AnaSpec (San Jose, CA, USA)
T1 sequence (P05067 672-711 limits assumed): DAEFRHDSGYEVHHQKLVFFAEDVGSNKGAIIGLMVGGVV
Protocol: The lyophilized white powder of β-amyloid(1–40) were purchased from AnaSpec (San Jose, CA, USA). After reconstituted by adding basic buffer (1% NH4OH. 60–70 μL) to β-amyloid (1–40) (1 mg) aggregation of Aβ1–40 was carried out by gently dissolving Aβ1–40 (0.25 mg/mL) in a PBS buffer (pH 7.4). The solution was incubated at 37 °C for 72 h with gentle and constant shaking. Binding studies were carried out according to the procedure described previously with some modifications using [^125I]TZDM as the radiolabeled standard. […] The mixture was incubated at 37 °C for 2 h. […] Filters containing the bound ^125I ligand were counted in a γ-counter (WALLAC Wizard 1470, PerkinElmer Life Sciences, Waltham, MA, USA) with 75% counting efﬁciency. The IC50 values were determined using GraphPad Prism 5.0, and those for the inhibition constant (Ki) were calculated using the Cheng Prusoff equation: Ki = IC50/(1 + [L]/Kd).

[1] = parameters: method as in PMID 12519062; settings: normal mice, cited from earlier work
Aβ plaques = Aβ plaques (Homo sapiens, UniProt P05067); assay: In vitro fluorescent staining of amyloid plaques in brain sections from transgenic mouse; assay type: binding, transgenic model mouse (APP/PS1); settings: brain sections 8 µm, APP/PS1, 12 months, male; 1 µM
Chain of Aβ plaques (P05067 672-711 limits assumed): as above
Protocol: Parafﬁn-embedded brain sections of transgenic model mouse (8 µm, APP/PS1, 12 months, male) were used for the in vitro fluorescent staining of amyloid plaques. The brain sections were deparafﬁnized with xylene, ethanol and distilled water. After immersion in PBS (0.02 M, pH 7.4) for 30 min, the brain sections were incubated with 20% ethanol solution (1 µM) of compound 8 for 10 min. The localization of plaques was confirmed by staining with thioﬂavin-S on the adjacent sections. Finally, the sections were washed with 40% ethanol and PBS (0.02 M, pH 7.4). Fluorescent observation was performed by a Stereo Discovery V12 instrument (Zeiss, Oberkochen, Germany) equipped with a LP 505 filter set (excitation, 405 nm).

[2] = In vivo biodistribution in normal mice; parameters: species or system KunMing normal mice; settings: iv injection
Protocol: In vivo biodistribution studies were performed in KunMing normal mice (female, average weight 18–22 g) and in accordance with the national laws related to the care and experiments on laboratory animal. A saline solution (100 µL) containing [^125I]8 or [^125I]17 (1 µCi) was injected directly into the tail vein of mice. The mice (n = 5 for each time point) were sacriﬁced at designated time points post-injection. The organs of interest were removed and weighed, and the radioactivity was counted with an automatic γ-counter (WALLAC Wizard 1470).

[3] = Partition coefficient determination (n-octanol/PBS); assay type: physicochemical; settings: n-octanol / PBS 0.02 M, pH 7.4
Protocol: The determination of partition coefﬁcients of [^125I]8 and [^125I]17 was performed according to the procedure previously reported with some modifications. Ligand [^125I]8 or [^125I]17 (~5 μCi) was mixed with 3 mL each of n-octanol and PBS (0.02 M, pH 7.4) in a test tube. The test tube was vortexed for 5 min at room temperature, followed by centrifugation for 10 min at 3,000 rpm. Two weighed samples from the n-octanol (50 µL) and buffer layers (400 µL) were counted in a γ-counter. The partition coefﬁcient was expressed as the logarithm of the ratio of the counts per gram from n-octanol versus that of PBS. Samples from the n-octanol layer were repartitioned until consistent partition coefﬁcient values were obtained. The measurements were done in triplicate and repeated three times.

Ki (Aβ1–40 aggregates): 8.6 ± 1.2 nM | melting point: 173 to 174 °C
Compound: Ic1ccc(/C=C/c2ccc3ncccc3c2)cc1 [Compound 17, (E)-6-(4-Iodostyryl)quinoline]

Ki (Aβ1–40 aggregates): 89.3 ± 2.6 nM
Compound: Fc1ccc(/C=C/c2ccc3[nH]ccc3c2)cc1 [Compound 5, (E)-5-(4-Fluorostyryl)-1H-indole]

Ki (Aβ1–40 aggregates): 45 ± 1.3 nM
Compound: Clc1ccc(/C=C/c2ccc3ncccc3c2)cc1 [Compound 15, (E)-6-(4-Chlorostyryl)quinoline]

Compound: CN(C)c1ccc(-c2cn3cc([123I])ccc3n2)cc1 [[^123I]IMPY]
brain uptake ([1]; 2 min postinjection ref 16): 2.88 % ID/organ | brain uptake ([1]; 60 min postinjection ref 16): 0.21 % ID/organ | brain2min/brain60min ratio ([1]; from literature values ref 16): 13.7

Ki (Aβ1–40 aggregates): 4.1 ± 0.2 nM | melting point: 211 to 212 °C
Compound: Ic1ccc(/C=C/c2ccc3[nH]ccc3c2)cc1 [Compound 8, (E)-5-(4-Iodostyryl)-1H-indole]
Fluorescent staining of Aβ plaques (Aβ plaques): specific binding to Aβplaques; also recorded: clearly stained Aβ plaques

Ki (Aβ1–40 aggregates): 32.4 ± 1.9 nM
Compound: COc1ccc(/C=C/c2ccc3[nH]ccc3c2)cc1 [Compound 10, (E)-5-(4-Methoxystyryl)-1H-indole]

Ki (Aβ1–40 aggregates): 288.4 ± 1.3 nM
Compound: Cc1ccc(/C=C/c2ccc3ncccc3c2)cc1 [Compound 18, (E)-6-(4-Methylstyryl)quinoline]

Ki (Aβ1–40 aggregates): 23.5 ± 1.3 nM
Compound: Brc1ccc(/C=C/c2ccc3ncccc3c2)cc1 [Compound 16, (E)-6-(4-Bromostyryl)quinoline]

Ki (Aβ1–40 aggregates): 16.3 ± 1.7 nM | melting point: 215 to 216 °C
Compound: Brc1ccc(/C=C/c2ccc3[nH]ccc3c2)cc1 [Compound 7, (E)-5-(4-Bromostyryl)-1H-indole]

Ki (Aβ1–40 aggregates): 270.4 ± 1.5 nM
Compound: Fc1ccc(/C=C/c2ccc3ncccc3c2)cc1 [Compound 14, (E)-6-(4-Fluorostyryl)quinoline]

Ki (Aβ1–40 aggregates): 51.5 ± 1 nM
Compound: Clc1ccc(/C=C/c2ccc3[nH]ccc3c2)cc1 [Compound 6, (E)-5-(4-Chlorostyryl)-1H-indole]

Ki (Aβ1–40 aggregates): 25.1 ± 2.1 nM | melting point: 162 to 163 °C
Compound: C(=C\c1ccc2[nH]ccc2c1)/c1ccccc1 [Compound 4, (E)-5-Styryl-1H-indole]

Biodistribution Blood ([2]; 2 min): 11.39 ± 1.56 % ID/g | Biodistribution Brain ([2]; 2 min): 2.05 ± 0.25 % ID/g | Biodistribution Heart ([2]; 2 min): 7.70 ± 0.86 % ID/g | Biodistribution Kidney ([2]; 2 min): 15.01 ± 1.56 % ID/g | Biodistribution Liver ([2]; 2 min): 22.45 ± 1.79 % ID/g | Biodistribution Lung ([2]; 2 min): 13.56 ± 1.71 % ID/g | Biodistribution Muscle ([2]; 2 min): 2.78 ± 0.42 % ID/g | Biodistribution Spleen ([2]; 2 min): 5.88 ± 0.30 % ID/g | Biodistribution Stomach ([2]; 2 min): 4.05 ± 0.09 % ID/organ | Biodistribution Blood ([2]; 15 min): 6.31 ± 0.51 % ID/g | Biodistribution Brain ([2]; 15 min): 1.18 ± 0.17 % ID/g | Biodistribution Heart ([2]; 15 min): 3.80 ± 0.12 % ID/g | Biodistribution Kidney ([2]; 15 min): 7.47 ± 1.01 % ID/g | Biodistribution Liver ([2]; 15 min): 9.95 ± 0.18 % ID/g | Biodistribution Lung ([2]; 15 min): 6.42 ± 0.47 % ID/g | Biodistribution Muscle ([2]; 15 min): 1.68 ± 0.20 % ID/g | Biodistribution Spleen ([2]; 15 min): 5.91 ± 0.58 % ID/g | Biodistribution Stomach ([2]; 15 min): 15.84 ± 0.78 % ID/organ | Biodistribution Blood ([2]; 30 min): 5.80 ± 0.37 % ID/g | Biodistribution Brain ([2]; 30 min): 0.93 ± 0.13 % ID/g | Biodistribution Heart ([2]; 30 min): 3.21 ± 0.11 % ID/g | Biodistribution Kidney ([2]; 30 min): 6.57 ± 0.50 % ID/g | Biodistribution Liver ([2]; 30 min): 9.12 ± 0.53 % ID/g | Biodistribution Lung ([2]; 30 min): 5.64 ± 0.41 % ID/g | Biodistribution Muscle ([2]; 30 min): 2.30 ± 0.32 % ID/g | Biodistribution Spleen ([2]; 30 min): 4.66 ± 0.52 % ID/g | Biodistribution Stomach ([2]; 30 min): 8.11 ± 1.21 % ID/organ | Biodistribution Blood ([2]; 60 min): 3.86 ± 0.74 % ID/g | Biodistribution Brain ([2]; 60 min): 0.55 ± 0.11 % ID/g | Biodistribution Heart ([2]; 60 min): 2.55 ± 0.21 % ID/g | Biodistribution Kidney ([2]; 60 min): 4.72 ± 0.69 % ID/g | Biodistribution Liver ([2]; 60 min): 6.97 ± 0.28 % ID/g | Biodistribution Lung ([2]; 60 min): 4.55 ± 0.49 % ID/g | Biodistribution Muscle ([2]; 60 min): 1.40 ± 0.34 % ID/g | Biodistribution Spleen ([2]; 60 min): 4.71 ± 0.97 % ID/g | Biodistribution Stomach ([2]; 60 min): 6.75 ± 0.43 % ID/organ | Biodistribution Blood ([2]; 120 min): 1.97 ± 0.35 % ID/g | Biodistribution Brain ([2]; 120 min): 0.26 ± 0.03 % ID/g | Biodistribution Heart ([2]; 120 min): 1.33 ± 0.06 % ID/g | Biodistribution Kidney ([2]; 120 min): 2.20 ± 0.34 % ID/g | Biodistribution Liver ([2]; 120 min): 3.93 ± 0.46 % ID/g | Biodistribution Lung ([2]; 120 min): 2.01 ± 0.18 % ID/g | Biodistribution Muscle ([2]; 120 min): 0.72 ± 0.21 % ID/g | Biodistribution Spleen ([2]; 120 min): 2.25 ± 0.36 % ID/g | Biodistribution Stomach ([2]; 120 min): 11.12 ± 2.48 % ID/organ | Biodistribution Blood ([2]; 240 min): 1.38 ± 0.24 % ID/g | Biodistribution Brain ([2]; 240 min): 0.14 ± 0.02 % ID/g | Biodistribution Heart ([2]; 240 min): 0.80 ± 0.19 % ID/g | Biodistribution Kidney ([2]; 240 min): 1.64 ± 0.23 % ID/g | Biodistribution Liver ([2]; 240 min): 2.96 ± 0.28 % ID/g | Biodistribution Lung ([2]; 240 min): 1.43 ± 0.28 % ID/g | Biodistribution Muscle ([2]; 240 min): 0.61 ± 0.08 % ID/g | Biodistribution Spleen ([2]; 240 min): 1.59 ± 0.17 % ID/g | Biodistribution Stomach ([2]; 240 min): 7.03 ± 1.51 % ID/organ | logD [3]: 2.73
Compound: [125I]c1ccc(/C=C/c2ccc3ncccc3c2)cc1 [[^125I]17]

Compound: (E)-5-(4-Methoxystyryl)-1H-indole [Compound 9]
Ki (Aβ1–40 aggregates): 15.8 ± 1.5 nM
